The source made the active and inactive calls. The calls are words filed in the database; no cut-off is given here.
Tests used:
[1] = tested on: Pseudomonas aeruginosa; assay: Antibacterial activity against Pseudomonas aeruginosa SR27001 infected in Jcl:ICR mouse systemic infection model assessed as increase in mouse survival rate administered iv 1 to 5 hrs post infection measured over 7 days; type: functional
[2] = tested on: Pseudomonas aeruginosa; assay: Antimicrobial activity against IMP-1 producing Pseudomonas aeruginosa SR27060 in presence of human apo-transferrin by broth microdilution method; type: functional
[3] = tested on: Stenotrophomonas maltophilia; assay: Antimicrobial activity against L-1 producing Stenotrophomonas maltophilia SR21970 in presence of human apo-transferrin by broth microdilution method; type: functional
[4] = tested on: Pseudomonas aeruginosa; assay: Antimicrobial activity against IMP-1 producing Pseudomonas aeruginosa SR27001 in presence of human apo-transferrin by broth microdilution method; type: functional
[5] = tested on: Pseudomonas aeruginosa; assay: Antimicrobial activity against Pseudomonas aeruginosa SR24 in presence of human apo-transferrin by broth microdilution method; type: functional
[6] = tested on: Klebsiella pneumoniae; assay: Antimicrobial activity against KPC-2 producing Klebsiella pneumoniae ATCC BAA-1705 in presence of human apo-transferrin by broth microdilution method; type: functional
[7] = tested on: Escherichia coli; assay: Antimicrobial activity against SHV-4 producing Escherichia coli ATCC BAA-200 in presence of human apo-transferrin by broth microdilution method; type: functional
[8] = tested on: Pseudomonas aeruginosa; assay: Antimicrobial activity against VIM-2 producing Pseudomonas aeruginosa SBRKM-28 in presence of human apo-transferrin by broth microdilution method; type: functional
[9] = tested on: Pseudomonas aeruginosa; assay: Antimicrobial activity against AmpC overproducing Pseudomonas aeruginosa SR24-12 in presence of human apo-transferrin by broth microdilution method; type: functional
[10] = tested on: Acinetobacter baumannii; assay: Antimicrobial activity against OXA-23/OXA-58 producing Acinetobacter baumannii SR27323 in presence of human apo-transferrin by broth microdilution method; type: functional
[11] = tested on: Pseudomonas aeruginosa; assay: Antimicrobial activity against Pseudomonas aeruginosa 27060deltaR1 harboring deletion of R1 plasmid in presence of human apo-transferrin by broth microdilution method; type: functional
[12] = Iron chelating activity in presence of cetyltrimethylammonium bromide at pH 5.5 by chromeazurol B dye based spectrophotometric method

Row | Structure (SMILES) | ED50 [1] | MIC [2] | MIC [3] | MIC [4] | MIC [5] | MIC [6] | MIC [7] | MIC [8] | MIC [9] | MIC [10] | MIC [11] | Activity [12]
1 | C[C@@H](O/N=C(\C(=O)N[C@@H]1C(=O)N2C(C(=O)[O-])=C(C[N+]3(CCNC(=O)c4ccc(O)c(O)c4Cl)CCCC3)CS[C@H]12)c1csc(N)n1)C(=O)O | 5.48 mg/kg | 2 µg/mL | 0.5 µg/mL | 1 µg/mL | 0.25 µg/mL | 0.063 µg/mL | 1 µg/mL | 0.125 µg/mL | 0.5 µg/mL | 1 µg/mL | 1 µg/mL | –
2 | CC(C)(O/N=C(\C(=O)N[C@@H]1C(=O)N2C(C(=O)[O-])=C(C[N+]3(CCNC(=O)c4cc(=O)c(O)cn4O)CCCC3)CS[C@H]12)c1csc(N)n1)C(=O)O | > 30 mg/kg | 4 µg/mL | 0.125 µg/mL | 4 µg/mL | 0.125 µg/mL | 0.063 µg/mL | 1 µg/mL | 0.063 µg/mL | 0.5 µg/mL | 0.5 µg/mL | 1 µg/mL | –
3 | CC(C)(O/N=C(\C(=O)N[C@@H]1C(=O)N2C(C(=O)[O-])=C(C[N+]3(CCNC(=O)c4cccc(O)c4O)CCCC3)CS[C@H]12)c1csc(N)n1)C(=O)O | – | 8 µg/mL | 1 µg/mL | 4 µg/mL | 0.063 µg/mL | 0.063 µg/mL | 2 µg/mL | – | 0.25 µg/mL | 1 µg/mL | 0.5 µg/mL | Active
4 | CC(C)(O/N=C(\C(=O)N[C@@H]1C(=O)N2C(C(=O)[O-])=C(C[N@+]3(C)[C@@H]4CC[C@H]3C[C@@H](NC(=O)c3ccc(O)c(O)c3Cl)C4)CS[C@H]12)c1csc(N)n1)C(=O)O | 10.5 mg/kg | 1 µg/mL | 1 µg/mL | 0.5 µg/mL | 0.25 µg/mL | 0.063 µg/mL | 2 µg/mL | 0.063 µg/mL | 0.5 µg/mL | 1 µg/mL | 0.5 µg/mL | –
5 | CC(C)(O/N=C(\C(=O)N[C@@H]1C(=O)N2C(C(=O)[O-])=C(C[N+]3(CCNC(=O)c4cc(=O)c(O)c[nH]4)CCCC3)CS[C@H]12)c1csc(N)n1)C(=O)O | 10.2 mg/kg | 4 µg/mL | 0.25 µg/mL | 4 µg/mL | 0.25 µg/mL | 0.063 µg/mL | 1 µg/mL | 0.25 µg/mL | 0.25 µg/mL | 1 µg/mL | 1 µg/mL | Active
6 | CC(C)(O/N=C(\C(=O)N[C@@H]1C(=O)N2C(C(=O)[O-])=C(C[N+]3(CCNC(=O)c4ccc(O)c(O)c4)CCCC3)CS[C@H]12)c1csc(N)n1)C(=O)O | – | 2 µg/mL | 2 µg/mL | 2 µg/mL | 0.125 µg/mL | 0.5 µg/mL | 2 µg/mL | 0.25 µg/mL | 1 µg/mL | 16 µg/mL | 2 µg/mL | Active
7 | CC(C)(O/N=C(\C(=O)N[C@@H]1C(=O)N2C(C(=O)[O-])=C(C[N+]3(CCNC(=O)c4cc(O)c(O)c(Cl)c4)CCCC3)CS[C@H]12)c1csc(N)n1)C(=O)O | 10.2 mg/kg | 1 µg/mL | 0.25 µg/mL | 1 µg/mL | 0.063 µg/mL | ≤ 0.031 µg/mL | 0.5 µg/mL | – | 0.125 µg/mL | 0.25 µg/mL | 0.25 µg/mL | –
8 | CC(C)(O/N=C(\C(=O)N[C@@H]1C(=O)N2C(C(=O)[O-])=C(C[N+]3(CCNC(=O)c4ccc(O)c(O)c4Cl)CCCC3)CS[C@H]12)c1csc(N)n1)C(=O)O [CEFIDEROCOL] | 5.48 mg/kg | 2 µg/mL | – | 1 µg/mL | 0.25 µg/mL | 0.063 µg/mL | 1 µg/mL | – | 0.5 µg/mL | 1 µg/mL | 1 µg/mL | Active
9 | CO/N=C(\C(=O)N[C@@H]1C(=O)N2C(C(=O)[O-])=C(C[N+]3(C)CCCC3)CS[C@H]12)c1csc(N)n1 | > 100 mg/kg | > 64 µg/mL | 64 µg/mL | > 64 µg/mL | 0.5 µg/mL | 32 µg/mL | 4 µg/mL | 16 µg/mL | 16 µg/mL | 16 µg/mL | 16 µg/mL | –
10 | CC(C)(O/N=C(\C(=O)N[C@@H]1C(=O)N2C(C(=O)[O-])=C(C[N+]3(CCNC(=O)c4cc(O)c(O)cc4Cl)CCCC3)CS[C@H]12)c1csc(N)n1)C(=O)O | 10.2 mg/kg | 2 µg/mL | 0.25 µg/mL | 2 µg/mL | 0.063 µg/mL | ≤ 0.031 µg/mL | 2 µg/mL | – | 0.125 µg/mL | 1 µg/mL | 1 µg/mL | –
11 | CC(C)(O/N=C(\C(=O)N[C@@H]1C(=O)N2C(C(=O)[O-])=C(C[N+](C)(C)CCNC(=O)c3ccc(O)c(O)c3Cl)CS[C@H]12)c1csc(N)n1)C(=O)O | – | 32 µg/mL | > 32 µg/mL | > 32 µg/mL | 0.063 µg/mL | 0.5 µg/mL | > 32 µg/mL | 0.25 µg/mL | 4 µg/mL | 0.5 µg/mL | 2 µg/mL | –
12 | Nc1nc(/C(=N/OCC(=O)O)C(=O)N[C@@H]2C(=O)N3C(C(=O)[O-])=C(C[N+]4(CCNC(=O)c5ccc(O)c(O)c5Cl)CCCC4)CS[C@H]23)cs1 | 9.84 mg/kg | 4 µg/mL | 1 µg/mL | 2 µg/mL | 0.125 µg/mL | 0.25 µg/mL | 32 µg/mL | 0.125 µg/mL | 0.5 µg/mL | 0.5 µg/mL | 2 µg/mL | –
13 | Cc1c(C(=O)NCC[N+]2(CC3=C(C(=O)[O-])N4C(=O)[C@@H](NC(=O)/C(=N\OC(C)(C)C(=O)O)c5csc(N)n5)[C@H]4SC3)CCCC2)ccc(O)c1O | – | 8 µg/mL | 1 µg/mL | 8 µg/mL | 0.5 µg/mL | 0.25 µg/mL | 8 µg/mL | – | 1 µg/mL | 8 µg/mL | 2 µg/mL | Active
14 | CC(C)(O/N=C(\C(=O)N[C@@H]1C(=O)N2C(C(=O)[O-])=C(C[N+]3(CCNC(=O)c4cc(Cl)c(O)c(O)c4Cl)CCCC3)CS[C@H]12)c1csc(N)n1)C(=O)O | – | 2 µg/mL | 0.125 µg/mL | 0.5 µg/mL | 0.125 µg/mL | 0.031 µg/mL | 0.5 µg/mL | 0.063 µg/mL | 0.25 µg/mL | 0.25 µg/mL | 0.5 µg/mL | Active
15 | CC(C)(O/N=C(\C(=O)N[C@@H]1C(=O)N2C(C(=O)[O-])=C(C[N+]3(CCNC(=O)c4ccc(O)c(O)c4O)CCCC3)CS[C@H]12)c1csc(N)n1)C(=O)O | – | 16 µg/mL | 8 µg/mL | 32 µg/mL | 1 µg/mL | 1 µg/mL | 32 µg/mL | – | 2 µg/mL | 32 µg/mL | 4 µg/mL | Active
16 | CC(C)(O/N=C(\C(=O)N[C@@H]1C(=O)N2C(C(=O)[O-])=C(C[N+]3(CCNC(=O)c4ccc(O)c(O)c4F)CCCC3)CS[C@H]12)c1csc(N)n1)C(=O)O | 5.48 mg/kg | 1 µg/mL | 0.25 µg/mL | 2 µg/mL | 0.125 µg/mL | ≤ 0.031 µg/mL | 0.5 µg/mL | – | 0.125 µg/mL | 0.5 µg/mL | 1 µg/mL | –
17 | CC(C)(O/N=C(\C(=O)N[C@@H]1C(=O)N2C(C(=O)[O-])=C(C[N+](C)(C)[C@@H]3CCN(C(=O)c4ccc(O)c(O)c4Cl)C3)CS[C@H]12)c1csc(N)n1)C(=O)O | 5.48 mg/kg | 2 µg/mL | 1 µg/mL | 2 µg/mL | 0.25 µg/mL | 0.25 µg/mL | 2 µg/mL | 0.25 µg/mL | 0.5 µg/mL | 1 µg/mL | 1 µg/mL | –
18 | CC(C)(O/N=C(\C(=O)N[C@@H]1C(=O)N2C(C(=O)[O-])=C(C[N+]34CCC(CNC(=O)c5ccc(O)c(O)c5Cl)(CC3)CC4)CS[C@H]12)c1csc(N)n1)C(=O)O | 9.42 mg/kg | 4 µg/mL | 0.25 µg/mL | 2 µg/mL | 0.25 µg/mL | 0.063 µg/mL | 2 µg/mL | 0.125 µg/mL | 0.5 µg/mL | 1 µg/mL | 1 µg/mL | –
